Measurements as given in paper PMC11596392, “Enhanced Antibacterial, Anti-Inflammatory, and Antibiofilm Activities of Tryptophan-Substituted Peptides Derived from Cecropin A-Melittin Hybrid Peptide BP100” (Molecules, 2024).
Values after ≈ are worked out from the molar mass of the structure shown. Where two headings read alike, the source gives them in different places. Where no end group is shown, it is not given here.

Assays:
[1] = tested on: B. subtilis (KCTC 3068); type: cell-based, Bacillus subtilis; settings: broth microdilution in MHB, 37 °C, 24 h, 100% inhibition of growth
Description: (§1) The antibacterial efficacy of the synthesized peptides was evaluated by determining the minimal inhibitory concentrations (MICs) against six standard bacterial strains and five drug-resistant bacterial strains using the Clinical and Laboratory Standards Institute (CLSI) microdilution method. Melittin served as the positive control.
(§2) The minimal inhibitory concentrations (MICs) of the peptides against bacterial strains were determined using a modified broth-microdilution method in accordance with the National Committee for Clinical Laboratory Standards (NCCLS) guidelines. Overnight cultures were diluted in cation-adjusted Mueller–Hinton Broth (MHB) to achieve an inoculum density of 2 × 10^6 CFU/mL. A two-fold serial dilution of the peptide solution (100 μL) was introduced into microtiter plates, followed by the addition of 100 μL of bacterial suspension. The plates were then incubated at 37 °C for 24 h to determine the MICs. Wells containing only culture media served as negative controls, while those with added bacteria functioned as positive controls. The MIC, expressed in μM, was defined as the lowest peptide concentration that prevented visible bacterial growth. This protocol was also employed to determine MICs in the presence of physiological salts (150 mM of NaCl, 4.5 mM of KCl, 6 μM of NH4Cl, 1 mM of MgCl2, 2.5 mM of CaCl2, and 4 μM of FeCl3) and 20% human serum to assess the peptides’ efficacy under conditions more closely resembling physiological environments. All experiments were conducted in triplicate and repeated three times independently to ensure reproducibility and statistical significance of the results.

[2] = tested on: VREF (ATCC 51559); type: cell-based, vancomycin-resistant Enterococcus faecium; settings: broth microdilution in MHB, 37 °C, 24 h, 100% inhibition of growth
Description: as §1, §2

[3] = tested on: E. coli (KCTC 1682); type: cell-based, Escherichia coli; settings: broth microdilution in MHB, 37 °C, 24 h, 100% inhibition of growth
Description: as §1, §2

[4] = tested on: MDRPA (CCARM 2095); type: cell-based, multidrug-resistant Pseudomonas aeruginosa; settings: broth microdilution in MHB, 37 °C, 24 h, 100% inhibition of growth
Description: as §1, §2

[5] = tested on: MDRPA (CCARM 2109); type: cell-based, multidrug-resistant Pseudomonas aeruginosa; settings: broth microdilution in MHB, 37 °C, 24 h, 100% inhibition of growth
Description: as §1, §2

[6] = tested on: MDRPA (CCARM 2095) biofilm formation; type: cell-based, multidrug-resistant Pseudomonas aeruginosa; settings: overnight 37 °C, crystal violet staining; for MBIC50: 50% inhibition; for MBIC90: 90% inhibition
Text: Bacterial biofilms, comprising communities of bacterial cells encased in a matrix of polysaccharides and nucleic acids, present a significant challenge for conventional antibiotics due to the protective nature of this matrix. Biofilms can enhance bacterial resistance to antibiotics by up to 1000-fold compared to planktonic bacteria. To address this issue, there is an urgent need to discover and develop novel alternative therapeutic agents capable of effectively combating biofilm-forming bacteria. […] Our research specifically focused on evaluating the impact of BP100 and its analogs on biofilm formation and eradication using multidrug-resistant Pseudomonas aeruginosa (MDRPA), a common pathogen responsible for biofilm-mediated nosocomial infections. The adhered biomass was quantified using crystal violet staining, and the minimum biofilm inhibitory concentration (MBIC90) was determined as the lowest concentration required to inhibit 90% of biofilm growth relative to the positive control. […] Human cathelicidin LL-37 is well-documented for its potent antibiofilm properties.
The inhibitory activity of the peptides on biofilm formation was evaluated against multidrug-resistant Pseudomonas aeruginosa (MDRPA) (CCARM 2095) using a biofilm inhibition assay to determine the minimal biofilm inhibitory concentration (MBIC). Peptide solutions were serially diluted in sterile water and aliquoted (100 μL) into a 96-well Costar polypropylene plate (Corning Inc., Corning, NY, USA). An equal volume of MDRPA suspension in Mueller–Hinton Broth (MHB), adjusted to 1 × 10^6 CFU/mL, was added to each well, resulting in a final inoculum density of 5 × 10^5 CFU/mL. Following overnight incubation at 37 °C, bacterial growth was quantified by measuring the optical density (OD) at 595 nm. Planktonic cells were then discarded, and the attached biofilms were washed thrice with distilled water. Residual biofilms were stained with 0.1% crystal violet for five minutes, washed to remove non-adherent dye, and subsequently destained using 95% ethanol. The OD at 595 nm was measured again to assess the biofilm mass. Control wells contained untreated bacteria. The MBIC was defined as the lowest peptide concentration that inhibited any residual crystal violet staining or biofilm formation. All assays were conducted in triplicate to ensure reproducibility. This method allows for the quantitative assessment of the peptides’ ability to prevent biofilm formation, a critical virulence factor in many bacterial infections, particularly those caused by multidrug-resistant strains.

[7] = tested on: E. coli (KCTC 1682); type: cell-based, Escherichia coli
Description: To comprehensively evaluate the therapeutic potential of BP100 and the five selected analogs, we assessed their capacity to maintain antibacterial activity in the presence of physiological salts and serum (Table 4). Antibacterial assays were conducted in an environment supplemented with either […] fresh human serum or physiological salts. […] This enhanced stability in physiologically relevant conditions may have important implications for the potential therapeutic applications of these peptide analogs.
as §2

[8] = tested on: E. coli (KCTC 1682); type: cell-based, Escherichia coli; settings: 10% Human Serum
[9] = tested on: S. aureus (KCTC 1621); type: cell-based, Staphylococcus aureus; settings: 10% Human Serum

Row | Compound | Minimal Inhibitory Concentration (MIC) [1] | Minimal Inhibitory Concentration (MIC) [2] | Minimal Inhibitory Concentration (MIC) [3] | Minimal Inhibitory Concentration (MIC) [4] | Minimal Inhibitory Concentration (MIC) [5] | MBIC50 [6] | MBIC90 [6] | MIC ([7]; 4 μM of FeCl3) | MIC ([7]; 6 μM of NH4Cl) | MIC ([7]; 1 mM of MgCl2) | MIC ([7]; 2.5 mM of CaCl2) | MIC ([7]; 4.5 mM of KCl) | MIC ([7]; 150 mM of NaCl) | MIC ([7]; Control, absence of salts) | MIC [8] | MIC [9]
1 | CC[C@H](C)[C@H](NC(=O)[C@H](CCCCN)NC(=O)[C@H](CCCCN)NC(=O)[C@H](Cc1ccccc1)NC(=O)[C@H](CC(C)C)NC(=O)[C@H](CCCCN)NC(=O)[C@@H](N)CCCCN)C(=O)N[C@@H](CC(C)C)C(=O)N[C@@H](CCCCN)C(=O)N[C@@H](Cc1ccc(O)cc1)C(=O)N[C@@H](CC(C)C)C(N)=O [BP100] | 8 µM | 64 µM | 4 µM | 32 µM | 16 µM | 4 to 8 µM | 8 µM | 16 µM (≈ 22.7 µg/mL) | 16 µM (≈ 22.7 µg/mL) | 16 µM (≈ 22.7 µg/mL) | 16 µM (≈ 22.7 µg/mL) | 16 µM (≈ 22.7 µg/mL) | 16 µM (≈ 22.7 µg/mL) | 4 µM | 16 µM (≈ 22.7 µg/mL) | 32 µM (≈ 45.5 µg/mL)
2 | KKWFKKWLKWL-NH2 [BP13] | 8 µM | 16 µM | 8 µM | 8 µM | 16 µM | 4 to 8 µM | 8 µM | 8 µM | 8 µM | 8 µM | 16 µM | 8 µM | 16 µM | 8 µM | 16 µM | 8 µM
3 | KKLFKKWWKYL-NH2 [BP9] | 16 µM | 64 µM | 4 µM | 16 µM | 16 µM | 8 to 16 µM | 16 µM | – | – | – | – | – | – | – | – | –
4 | KKLFKKWWKWL-NH2 [BP16] | 16 µM | 64 µM | 16 µM | 32 µM | 32 µM | 8 to 16 µM | 16 µM | – | – | – | – | – | – | – | – | –
5 | CC[C@H](C)[C@H](NC(=O)[C@H](CCCCN)NC(=O)[C@H](CCCCN)NC(=O)[C@H](Cc1c[nH]c2ccccc12)NC(=O)[C@H](CC(C)C)NC(=O)[C@H](CCCCN)NC(=O)[C@@H](N)CCCCN)C(=O)N[C@@H](CC(C)C)C(=O)N[C@@H](CCCCN)C(=O)N[C@@H](Cc1ccc(O)cc1)C(=O)N[C@@H](CC(C)C)C(N)=O [BP1] | 8 µM | 64 µM | 8 µM | 16 µM | 16 µM | 4 to 8 µM | 8 µM | – | – | – | – | – | – | – | – | –
6 | CC[C@H](C)[C@H](NC(=O)[C@H](CCCCN)NC(=O)[C@H](CCCCN)NC(=O)[C@H](Cc1ccccc1)NC(=O)[C@H](CC(C)C)NC(=O)[C@H](CCCCN)NC(=O)[C@@H](N)CCCCN)C(=O)N[C@@H](CC(C)C)C(=O)N[C@@H](CCCCN)C(=O)N[C@@H](Cc1c[nH]c2ccccc12)C(=O)N[C@@H](CC(C)C)C(N)=O [BP4] | 4 µM | 16 µM | 4 µM | 8 µM | 16 µM | 4 to 8 µM | 8 µM | – | – | – | – | – | – | – | – | –
7 | CC[C@H](C)[C@H](NC(=O)[C@H](CCCCN)NC(=O)[C@H](CCCCN)NC(=O)[C@H](Cc1ccccc1)NC(=O)[C@H](CC(C)C)NC(=O)[C@H](CCCCN)NC(=O)[C@@H](N)CCCCN)C(=O)N[C@@H](Cc1c[nH]c2ccccc12)C(=O)N[C@@H](CCCCN)C(=O)N[C@@H](Cc1ccc(O)cc1)C(=O)N[C@@H](CC(C)C)C(N)=O [BP3] | 16 µM | 64 µM | 8 µM | 16 µM | 16 µM | 8 to 16 µM | 16 µM | – | – | – | – | – | – | – | – | –
8 | KKLWKKWLKYW-NH2 [BP14] | 4 µM | 64 µM | 4 µM | 16 µM | 8 µM | 8 to 16 µM | 16 µM | – | – | – | – | – | – | – | – | –
9 | KKLWKKIWKYW-NH2 [BP15] | 4 µM | 64 µM | 4 µM | 16 µM | 8 µM | 4 to 8 µM | 8 µM | – | – | – | – | – | – | – | – | –
10 | CC(C)C[C@H](NC(=O)[C@H](Cc1ccc(O)cc1)NC(=O)[C@H](CCCCN)NC(=O)[C@H](CC(C)C)NC(=O)[C@H](Cc1c[nH]c2ccccc12)NC(=O)[C@H](CCCCN)NC(=O)[C@H](CCCCN)NC(=O)[C@H](Cc1ccccc1)NC(=O)[C@H](CC(C)C)NC(=O)[C@H](CCCCN)NC(=O)[C@@H](N)CCCCN)C(N)=O [BP2] | 8 µM | 128 µM | 2 µM | 8 µM | 4 µM | 8 to 16 µM | 16 µM | – | – | – | – | – | – | – | – | –
11 | KKLWKKIWKYL-NH2 [BP7] | 4 µM | 32 µM | 4 µM | 8 µM | 4 µM | 4 to 8 µM | 8 µM | – | – | – | – | – | – | – | – | –
12 | KKLFKKWLKYW-NH2 [BP10] | 16 µM | 128 µM | 8 µM | 16 µM | 16 µM | 16 to 32 µM | 32 µM | – | – | – | – | – | – | – | – | –
13 | KKLFKKILKWW-NH2 [BP12] | 8 µM | 128 µM | 8 µM | 16 µM | 16 µM | 4 to 8 µM | 8 µM | – | – | – | – | – | – | – | – | –
